Source: US7744867B2, “PTPase inhibitors and method of using same” (The Cleveland Clinic Foundation, priority 2001, dated 2010)

Experiments:
[1] = tested on: WiT49-N1 cells (Wilms tumor); assay: Growth inhibition of human tumor cell lines (MTT); assay type: cell-based; settings: SS 12.5 μg/ml, IFNα 1,000 u/ml, alone or combined
Source text: FIG. 9 illustrates growth inhibition of human cell lines of non-hematopoietic malignancies by sodium stibogluconate and/or IFNα. Percentage of growth inhibition of WM9 (A), DU145 (B), MDA231 (C) and WiT49-N1 (D) in the absence or presence of various amounts of sodium stibogluconate and/or IFNα (1,000 u/ml) in day 6 cultures as measured by MTT assays.

[2] = tested on: C42 cells (Prostate cancer); assay: Growth inhibition of human tumor cell lines; assay type: cell-based; settings: SS 12.5 μg/ml, IFNα 1,000 u/ml, alone or combined
[3] = tested on: WM9 human melanoma xenografts; assay: Xenografts of human melanoma in nude mice, tumor volume; assay type: in vivo; settings: day 25, IFNα 500,000 U s.c. daily, sodium stibogluconate 12 mg Sb s.c. daily
Source text: FIG. 11 illustrates that sodium stibogluconate appears to synergize with IFNα against WM9 human melanoma tumors in nude mice. IFNα or both on the growth of xenografts of human melanoma cell line WM9 and human prostate carcinoma cell line DU-145 in athymic nude mice. Nude mice of 4 weeks old were inoculated subcutaneously (s.c.) with WM9 human melanoma cells (3×10^6 cells/site) (A) or DU-145 human prostate cancer cells (2×10^6 cells/site) (B) on day 0. Starting on day 2, the mice were subjected to no treatment (Control) or treatment with IFNα (500,000 U, s.c., daily), sodium stibogluconate (12 mg, s.c., daily) or both (Combo). Tumor volume in the nude mice (4 mice/group, 2 tumors/mouse) was measured on the days as indicated. Tumor volume was calculated by the equation: (length×width^2)/2 to compare tumor growth rates. All mice survived by the end of the experiment. […]
For each of the cell lines, each of 16 mice received subcutaneous injection at the chest area of 3×10^6 cells/site (WM9) or 2×10^6 cells/site (DU145), two sites/mouse, on day 0. […] Tumor size was measured with a caliper to determine the two perpendicular diameters of each tumor. Tumor volume was calculated using the method of the NCI (length×width^2 in millimeters/2=volume in cubic millimeters). […]

Melanomas = settings: melanoma patients; cited from earlier work
recombinant PRL-2 = target: T1, recombinant PRL-2 (Homo sapiens, UniProt Q12974); assay: In vitro PTPase assay with recombinant PRL; assay type: biochemical; settings: washing process / stable complex
T1 construct: made in house; host or cells: E. coli DH5α
T1 sequence (Q12974 1-167): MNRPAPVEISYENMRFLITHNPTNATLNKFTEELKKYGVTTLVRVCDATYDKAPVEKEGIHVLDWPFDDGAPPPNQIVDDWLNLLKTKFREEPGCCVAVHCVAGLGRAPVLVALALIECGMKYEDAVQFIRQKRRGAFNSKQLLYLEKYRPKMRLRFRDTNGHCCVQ
Description: In vitro PTPase activities were measured using the commercial protein tyrosine phosphatase assay kit (UBI) following established procedure. […] 100 μl of Malachite Green solution was added and incubated for 5 minutes, and the absorbance at 660 nm was measured after 5 minutes.
Recombinant GST fusion proteins of human PRL-1, 2 and 3 phosphatases were purified with glutathione beads from DH5α bacteria transformed by pGEX vectors containing cDNA fragments encoding the human PRLs which were generated by RT-PCR from H9 cells and confirmed by sequence analysis. Activities of the purified recombinant PRL proteins in dephosphorylating DiFMUP in the absence or presence of various inhibitors were measured following established procedure.
To assess whether sodium stibogluconate is an inhibitor of oncogenic PRL phosphatases, its effects on the PTPase activity of recombinant PRLs were evaluated by in vitro PTPase assays.

Baf3 cells = assay: IL-3-induced proliferation of Baf3 cells; assay type: cell-based, murine; settings: at 1,000 μg/ml
Description: The murine hematopoietic cell line Baf3 was maintained in RPMI 1640 medium supplemented with 10% fetal calf serum (FCS) and murine IL-3 (20 units/ml) as described previously. Human myeloid cell line TF-1 was maintained in RPMI 1640 supplemented with 10% FCS and 40 ng/ml of recombinant human GM-CSF as described previously. For cell proliferation assays, cells were washed in 10% FCS medium twice, resuspended in 10% FCS medium, incubated at 37° C. for 16 hours and then cultured at 37° C. in 10% FCS medium containing various amounts of cytokines, sodium stibogluconate, or PSbT for 3-6 days as indicated. The cell numbers in proliferation assays were determined by an MTT assay or by microscopic cell counting as indicated.

[4] = Tolerability in nude mice (viability, body weight, appearance); assay type: in vivo
Description: The effective dosage of sodium stibogluconate against WM9 and DU145 xenografts is well tolerated in nude mice. […] Thus dosage is much higher than the standard dose for Leishmaniasis (20 mg Sb/kg, daily). As an initial step to assess the toxicity of such a high dosage of sodium stibogluconate in nude mice, its effect on the viability and body weights of WM9 xenografts nude mice during the 25 day period of the study was determined.

Compound	% of growth inhibition by day 6 (±s.d.) [1]	% of growth inhibition by day 6 (±s.d.) [2]	average tumor volume, of the control group [3]	response rates (Melanomas) [%]	reversibility of PRL-2 inactivation (recombinant PRL-2)	IL-3-induced Baf3 growth (Baf3 cells)	tolerability ([4]; 12 mg Sb daily (440 mg Sb/kg daily), s.c., 25 day study)	daily dose that mice could tolerate ([4]; pilot study, approximately 700-800 mg Sb/kg) [mg Sb]
IFNα	22 (11) %	+19 (30) %	approximately 40%	15				
O.O.O.O.O.O.O.O.O.O=C([O-])[C@@H]1[O][Sb]2([O-])([O][Sb]34([OH])[O][C@H]([C@H](O)CO)[C@H]([O]3)[C@H](C(=O)[O-])[O]4)[O][C@H]([C@H](O)CO)[C@@H]1[O]2.[Na+].[Na+].[Na+] [sodium stibogluconate]					irreversibly inhibits	suppressed	well tolerated with no serious side effect	20
